According to paper PMC6146285 (Journal of pharmacological and toxicological methods, 2018):
Where two headings read alike, the source gives them in different places.

Legend:
Format in all cases: cell-based, human
[1] = system: CDI (iCell Cardiomyocytes^2, Cellular Dynamics International) hiPSC-CMs
hiPSC-CMs = settings: for Arrhythmia incidence by dose level: all sites and cell types tested; for Arrhythmia: one site; for Inotropic effect (impedance signal): hiPSC-CMs; for Average % change in EFP amplitude / FPDmax: with increasing concentrations; for FPDmax compared to pre-addition values: 30 min post compound addition, low risk compounds; for FPD prolongation: cell types other than CLS
[2] = system: AXG (Cor.4U, Ncardia) hiPSC-CMs
[3] = system: PLR (Pluricyte Cardiomyocytes, Ncardia) hiPSC-CMs
[4] = system: CLS (Cellartis Cardiomyocytes, Takara Bio Clontech) hiPSC-CMs
[5] = all sites and cell types, dose levels of Table 3

CC(C)NCC(O)c1ccc(NS(C)(=O)=O)cc1 (stereo not drawn) [D,l Sotalol]
Arrhythmic events ([1]; CDI, 10 μM): EAD-like events and ectopic beats | BRCoV ([1]; CDI, post addition of 10 μM): large increase | Beat rate ([1]; CDI, post addition of 10 μM): decrease | Impedance amplitude ([1]; CDI, post addition of 10 μM): remains unchanged | Arrhythmia detection starting at (dose level) (hiPSC-CMs; [5]): dose 3

CN(C)CCCN1c2ccccc2Sc2ccc(Cl)cc21 [Chlorpromazine]
Arrhythmic events (hiPSC-CMs; independent of the cell type or site): did not induce arrhythmic events

COc1ccc(CCN2CCC(Nc3nc4ccccc4n3Cc3ccc(F)cc3)CC2)cc1 [Astemizole]
Arrhythmia incidence by dose level (hiPSC-CMs; dose levels of Table 3): arrhythmia in most cases at dose 3, and almost all cases at dose 4

CC[C@H]1OC(=O)[C@H](C)[C@@H](O[C@H]2C[C@@](C)(OC)[C@@H](O)[C@H](C)O2)[C@H](C)[C@@H](O[C@@H]2O[C@H](C)C[C@H](N(C)C)[C@H]2O)[C@](C)(OC)C[C@@H](C)C(=O)[C@H](C)[C@@H](O)[C@]1(C)O [Clarithromycin]
Arrhythmia incidence by dose level (hiPSC-CMs; dose levels of Table 3): arrhythmia in most cases at dose 3, and almost all cases at dose 4

COc1cc2c(Nc3ccc(Br)cc3F)ncnc2cc1OCC1CCN(C)CC1 [Vandetanib]
Arrhythmia detection starting at (dose level) (hiPSC-CMs; [5]): dose 3

CC(C)N(CCC(C(N)=O)(c1ccccc1)c1ccccn1)C(C)C (stereo not drawn) [Disopyramide]
Arrhythmia (hiPSC-CMs; 10 and 100 μM): Arrhythmia was detected | Arrhythmia detection starting at (dose level) (hiPSC-CMs; [5]): dose 3 | Inotropic effect (impedance signal) (hiPSC-CMs): negative inotropic effect | Average % change in impedance amplitude (hiPSC-CMs; with increasing concentration, all cell types at one site): decreased | Average % change in EFP amplitude (hiPSC-CMs; all cell types at one site): decreased | FPDmax (hiPSC-CMs; all cell types at one site): increased

COC(=O)C1=C(C)NC(C)=C(C(=O)OC)C1c1ccccc1[N+](=O)[O-] [Nifedipine]
Chronic effect on cell viability (base impedance) ([2]; AXG, recorded over 24 h): time and concentration-dependent reduction of cell viability | FPDmax compared to pre-addition values (hiPSC-CMs): decrease | Inotropic effect (impedance signal) (hiPSC-CMs): negative inotropic effect

CCOC(=O)N1CCC(=C2c3ccc(Cl)cc3CCc3cccnc32)CC1 [Loratadine]
FPDmax compared to pre-addition values (hiPSC-CMs): not a significant change

O=c1[nH]c2ccccc2n1CCCN1CCC(n2c(=O)[nH]c3cc(Cl)ccc32)CC1 [Domperidone]
Arrhythmia (hiPSC-CMs; 0.3, 3 μM): arrhythmia is marked | Arrhythmia incidence by dose level (hiPSC-CMs; dose levels of Table 3): arrhythmia in most cases at dose 3, and almost all cases at dose 4 | Inotropic effect (impedance signal) (hiPSC-CMs): negative inotropic effect | Average % change in EFP amplitude (hiPSC-CMs; all cell types at one site): decreased | FPDmax (hiPSC-CMs; all cell types at one site): increased

COc1ccc([C@@H]2Sc3ccccc3N(CCN(C)C)C(=O)[C@@H]2OC(C)=O)cc1 [Diltiazem]
FPDmax compared to pre-addition values (hiPSC-CMs): decrease

CC(C)(C)c1ccc(C(O)CCCN2CCC(C(O)(c3ccccc3)c3ccccc3)CC2)cc1 (stereo not drawn) [Terfenadine]
Number of experiments with quiescence (hiPSC-CMs; other experiments): 4 | Number of experiments with arrhythmia (hiPSC-CMs; site 4, AXG and site 4, CLS): 2

O=C(CCCN1CC=C(n2c(=O)[nH]c3ccccc32)CC1)c1ccc(F)cc1 [Droperidol]
Arrhythmia incidence by dose level (hiPSC-CMs; dose levels of Table 3): arrhythmia in most cases at dose 3, and almost all cases at dose 4 | Arrhythmic events ([3]; 0.3 μM): rolling EAD-like events | FPDmax ([3]; 0.3 μM): increase | Beat rate ([3]; post addition of 0.3 μM): decrease | Beat rate coefficient of variation ([3]; post addition of 0.3 μM): increase | Impedance amplitude ([3]; post addition of 0.3 μM): remains unchanged

C=C[C@H]1C[N@@]2CC[C@H]1C[C@@H]2[C@@H](O)c1ccnc2ccc(OC)cc12 [Quinidine]
Arrhythmia detection starting at (dose level) (hiPSC-CMs; [5]): dose 2 | Incidence of FPDmax>10% or > 30% started at (dose level) (hiPSC-CMs; [5]): dose 1

CN(CCOc1ccc(NS(C)(=O)=O)cc1)CCc1ccc(NS(C)(=O)=O)cc1 [dofetilide]
FPD prolongation upon application ([4]; CLS hiPSC-CMs, 0.5-10 nM): did not exhibit an expected FPD prolongation | FPD prolongation (hiPSC-CMs; 0.5 nM): approx. 10% | FPD prolongation (hiPSC-CMs; 10 nM, arrhythmia present): ~100% | Effect on FPD and arrhythmia (hiPSC-CMs; wells treated with 5 nM and 10 nM): prolongation of FPD and arrhythmia

COc1cc(N)c(Cl)cc1C(=O)NC1CCN(CCCOc2ccc(F)cc2)CC1OC (stereo not drawn) [Cisapride]
Arrhythmia incidence by dose level (hiPSC-CMs; dose levels of Table 3): arrhythmia in most cases at dose 3, and almost all cases at dose 4

Cc1nc2n(c(=O)c1CCN1CCC(c3noc4cc(F)ccc34)CC1)CCCC2 [Risperidone]
Change in the FPD ([4]; CLS cells): no significant change | Change in the FPD ([2]; AXG cells): no significant change | Change in the FPD ([1]; CDI cells): > 10%

CC/C(=C(\c1ccccc1)c1ccc(OCCN(C)C)cc1)c1ccccc1 [Tamoxifen]
Decrease of average % change in EFP amplitude ([1]; CDI, 3 μM, one site): ~ 40% | Decrease of average % change in FPDmax ([1]; CDI, 3 μM, one site): ~ 40% | Increase in beat rate ([1]; CDI, 3 μM, one site): ~ 40% | Changes in average impedance signals ([1]; CDI, 0.3, 0.9 and 3 μM): No significant changes

O=c1[nH]c2ccccc2n1C1CCN(CCCC(c2ccc(F)cc2)c2ccc(F)cc2)CC1 [Pimozide]
Arrhythmogenicity ([2]; site 4, AXG cells): not arrhythmogenic | Arrhythmia incidence by dose level (hiPSC-CMs; dose levels of Table 3): arrhythmia in most cases at dose 3, and almost all cases at dose 4

CCOC(=O)C1=C(C)NC(C)=C(C(=O)OC)C1c1cccc([N+](=O)[O-])c1 (stereo not drawn) [Nitrendipine]
FPDmax compared to pre-addition values (hiPSC-CMs): decrease

Cc1nccn1CC1CCc2c(c3ccccc3n2C)C1=O (stereo not drawn) [Ondansetron]
Arrhythmia incidence by dose level (hiPSC-CMs; dose levels of Table 3): arrhythmia in most cases at dose 3, and almost all cases at dose 4
